# Data reported in patent US8609675B2, “Fused Tricyclic Compounds as novel mTOR inhibitors” (Merck Sharp & Dohme Corp., priority 2009, dated 2013).
# Target: human mTOR enzyme (Homo sapiens, UniProt P42345)
# Assay: mTOR Kinase Assay
# Format: biochemical
# Conditions: 5 μM ATP, 0.1 μM GST-S6K, rated A, B or C
# Method: The mTOR assay buffer contained 10 mM hepes (pH 7.4), 50 mM NaCl, 100 μg/ml BSA, 50 mM β-glycerophosphate, 10 mM MnCl2 and 0.5 mM DTT. 20 ng of human mTOR enzyme was preincubated with the compound for 10 minutes. 5 μM ATP and 0.1 μM GST-S6K was added. The reaction was incubated for one hour at 30° C. Anti phospho p70-S6K (about 1.7 ng/well) and anti GST-XL665 (1:1 Ratio with the substrate GST-56K) were added after incubating. The plates were read at least 2 hours after adding the anti phospho p70-S6K and the anti GST-XL665.
# IC50 DETERMINATIONS: Dose-response curves were plotted from the inhibition data generated, each in duplicate, from 8 point serial dilutions of inhibitory compounds. Concentration of compound was plotted against % kinase activity, calculated by CPM of treated samples divided by CPM of untreated samples. To generate IC50 values, the dose-response curves were then fitted to a standard sigmoidal curve and IC50 values were derived by nonlinear regression analysis.
row,Structure (SMILES),IC50 [nM]
1,Cc1n[nH]c2c1c(CC1CCC(C)(C(=O)O)CC1)nc1c(-c3ccc(-c4cnn(C)c4)nc3)cnn12 (stereo not shown) [Compound 4],1 to 10
2,O=C(O)CC1CCC(c2nc3c(-c4ccc(-c5ccccc5)nc4)cnn3c3[nH]ccc23)CC1 (mixture of isomers) [Compound 29],< 1
3,"C[C@@H](O)C(=O)N1CCC(Cc2nc3c(-c4ccc(-c5ccccc5)nc4)cnn3c3[nH]ccc23)CC1 [Compound 33, (R)-2-hydroxy-1-(4-((3-(6-phenylpyridin-3-yl)-8H-pyrazolo[1,5-a]pyrrolo[3,2-e]pyrimidin-5-yl)methyl)piperidin-1-yl)propan-1-one]",10 to 100
4,O=S1(=O)CCN(c2nc3c(-c4cnc5ccccc5c4)cnn3c3[nH]ccc23)CC1 [Compound 13],1 to 10
5,O=S1(=O)CCC(c2nc3c(-c4cnc5ccc(F)cc5c4)cnn3c3[nH]ccc23)CC1 [Compound 12],1 to 10
6,CCc1n[nH]c2c1c(N1CCS(=O)(=O)CC1)nc1c(-c3cnc4ccccc4c3)cnn12 [Compound 17],1 to 10
7,CC1(C(=O)O)CC=C(c2nc3c(-c4ccc(-c5ccccc5)nc4)cnn3c3[nH]ccc23)CC1 (stereo not shown) [Compound 28],1 to 10
8,"Cc1n[nH]c2c1c(CNC1CCOCC1)nc1c(-c3cnc4ccccc4c3)cnn12 [Compound 26, N-((3-methyl-6-(quinolin-3-yl)-1H-dipyrazolo[1,5-a:4′,3′-e]pyrimidin-4-yl)methyl)tetrahydro-2H-pyran-4-amine]",1 to 10
9,O=S1(=O)CCC(c2nc3c(-c4cnc5ccc(F)cc5c4)cnn3c3[nH]cc(Cl)c23)CC1 [Compound 31],1 to 10
10,"CS(=O)(=O)N1CCC(c2nc3c(-c4ccc(-c5ccccc5)nc4)cnn3c3[nH]ccc23)C1 (stereo not shown) [Compound 27, 5-(1-(methylsulfonyl)pyrrolidin-3-yl)-3-(6-phenylpyridin-3-yl)-8H-pyrazolo[1,5-a]pyrrolo[3,2-e]pyrimidine]",1 to 10
11,Cc1n[nH]c2c1c([C@H]1CC[C@H](C(=O)O)CC1)nc1c(-c3cnc4ccccc4c3)cnn12 [Compound 7],10 to 100
12,"O=C(O)[C@H]1CC[C@H](c2nc3c(-c4ccc(-c5ccccc5)nc4)cnn3c3[nH]ccc32)CC1 [Compound 23, (trans)-4-(3-(6-phenylpyridin-3-yl)-8H-pyrazolo[1,5-a]pyrrolo[3,2-e]pyrimidin-5-yl)cyclohexanecarboxylic acid]",1 to 10
13,O=S1(=O)CCC(c2nc3c(-c4cnc5ccc(F)cc5c4)cnn3c3[nH]ncc23)CC1 [Compound 16],10 to 100
14,"C[C@@H](O)C(=O)N1CCC(c2nc3c(-c4ccc(-c5ccccc5)nc4)cnn3c3[nH]ccc23)CC1 [Compound 25, (R)-2-hydroxy-1-(4-(3-(6-phenylpyridin-3-yl)-8H-pyrazolo[1,5-a]pyrrolo[3,2-e]pyrimidin-5-yl)piperidin-1-yl)propan-1-one]",1 to 10
15,"C[C@@H](O)C(=O)N1CCC(c2nc3c(-c4ccc(-c5ccccc5)nc4)cnn3c3[nH]cc(Cl)c23)CC1 [Compound 34, (R)-1-(4-(6-chloro-3-(6-phenylpyridin-3-yl)-8H-pyrazolo[1,5-a]pyrrolo[3,2-e]pyrimidin-5-yl)piperidin-1-yl)-2-hydroxypropan-1-one]",1 to 10
16,O=S1(=O)CCC(c2nc3c(-c4cnc5ccccc5c4)cnn3c3[nH]ccc23)CC1 [Compound 11],1 to 10
17,"O=C([C@H](O)CO)N1CCC(c2nc3c(-c4ccc(-c5ccccc5)nc4)cnn3c3[nH]ccc23)CC1 [Compound 24, (R)-2,3-dihydroxy-1-(4-(3-(6-phenylpyridin-3-yl)-8H-pyrazolo[1,5-a]pyrrolo[3,2-e]pyrimidin-5-yl)piperidin-1-yl)propan-1-one]",1 to 10
18,"C[C@@H](O)C(=O)N1CCC(Oc2nc3c(-c4ccc(-c5ccccc5)nc4)cnn3c3[nH]ccc23)CC1 [Compound 35, (R)-2-hydroxy-1-(4-(3-(6-phenylpyridin-3-yl)-8H-pyrazolo[1,5-a]pyrrolo[3,2-e]pyrimidin-5-yloxy)piperidin-1-yl)propan-1-one]",10 to 100
19,"Cc1n[nH]c2c1c(CC1CCC(C(=O)O)CC1)nc1c(-c3ccc(-c4cnn(C)c4)nc3)cnn12 (stereo not shown) [Compound 6, 4-((3-methyl-6-(6-(1-methyl-1H-pyrazol-4-yl)pyridin-3-yl)-1H-dipyrazolo[1,5-a:4′,3′-e]pyrimidin-4-yl)methyl)cyclohexanecarboxylic acid]",1 to 10
20,Cc1n[nH]c2c1c(CC1CCC(C)(C(=O)O)CC1)nc1c(-c3ccc(-c4cccnc4)nc3)cnn12 (stereo not shown) [Compound 2],1 to 10

# The next lines start with the values.
row,IC50 [nM],Structure (SMILES)
1,1 to 10,"Cc1n[nH]c2c1c(C1CCN(C(=O)[C@@H](C)O)CC1)nc1c(-c3ccc(-c4ccccc4)nc3)cnn12 [Compound 30, (R)-2-hydroxy-1-(4-(3-methyl-6-(6-phenylpyridin-3-yl)-1H-dipyrazolo[1,5-a:4′,3′-e]pyrimidin-4-yl)piperidin-1-yl)propan-1-one]"
2,1 to 10,"Cc1n[nH]c2c1c(CC1CCC(C)(C(=O)O)CC1)nc1c(-c3ccc(-c4ccccc4)nc3)cnn12 (stereo not shown) [Compound 3, 1-methyl-4-((3-methyl-6-(6-phenylpyridin-3-yl)-1H-dipyrazolo[1,5-a:4′,3′-e]pyrimidin-4-yl)methyl)cyclohexanecarboxylic acid]"
3,1 to 10,O=S1(=O)CCC(c2nc3c(-c4ccc(-c5ccccc5)nc4)cnn3c3[nH]ccc23)CC1 [Compound 9]
4,1 to 10,Cc1n[nH]c2c1c(C1CCS(=O)(=O)CC1)nc1c(-c3ccc(-c4ccccc4)nc3)cnn12 [Compound 20]
5,10 to 100,O=S1(=O)CCC(c2nc3c(-c4ccc(-c5cccnc5)nc4)cnn3c3[nH]ncc23)CC1 [Compound 10]
6,1 to 10,O=S1(=O)CCC(c2nc3c(-c4ccc(-c5ccccc5)nc4)cnn3c3[nH]cc(Cl)c23)CC1 [Compound 32]
7,1 to 10,"Cc1n[nH]c2c1c(CC1CCC(C(=O)O)CC1)nc1c(-c3ccc(-c4ccccc4)nc3)cnn12 (stereo not shown) [Compound 5, 4-((3-methyl-6-(6-phenylpyridin-3-yl)-1H-dipyrazolo[1,5-a:4′,3′-e]pyrimidin-4-yl)methyl)cyclohexanecarboxylic acid]"
8,1 to 10,Cc1n[nH]c2c1c(C1CCS(=O)(=O)CC1)nc1c(-c3cnc4ccccc4c3)cnn12 [Compound 18]
9,1 to 10,Cc1n[nH]c2c1c(C1CCS(=O)(=O)CC1)nc1c(-c3cnc4ccc(F)cc4c3)cnn12 [Compound 21]
10,< 1,"Cc1n[nH]c2c1c([C@H]1CC[C@H](C(=O)O)CC1)nc1c(-c3ccc(-c4ccccc4)nc3)cnn12 [Compound 8, (1R,4R)-4-(3-methyl-6-(6-phenylpyridin-3-yl)-1H-dipyrazolo[1,5-a:4′,3′-e]pyrimidin-4-yl)cyclohexanecarboxylic acid]"
11,10 to 100,"Cc1n[nH]c2c1c(C1CCS(=O)(=O)CC1)nc1c(-c3cnc4ccccc4c3)cnn12 [Compound 1, 3-(Quinolin-3-yl)-5-(1,1-dioxo-tetrahydro-2H-thiopyran-4-yl)-6-methyl-dipyrazolo[1,5-a:4′,3′-e]pyrimidine]"
12,< 1,"Cc1n[nH]c2c1c(C1CCC(CC(=O)O)CC1)nc1c(-c3ccc(-c4ccccc4)nc3)cnn12 (stereo not shown) [Compound 22, 2-(4-(3-methyl-6-(6-phenylpyridin-3-yl)-1H-dipyrazolo[1,5-a:4′,3′-e]pyrimidin-4-yl)cyclohexyl)acetic acid]"
13,1 to 10,Cc1n[nH]c2c1c(C1CCS(=O)(=O)CC1)nc1c(-c3ccc(-c4cccnc4)nc3)cnn12 [Compound 19]
14,1 to 10,O=S1(=O)CCC(c2nc3c(-c4ccc(-c5ccccc5)nc4)cnn3c3[nH]ncc23)CC1 [Compound 15]
